Patent publication US6649658B1, “(−)-Verbenone derivatives” (Euphar Group SRL, priority 1999, dated 2003)

Legend:
[1] = Stability on storage or handling; assay type: physicochemical; details: in words
[2] = system: Carrageenin-induced Oedema; experiment: Carrageenin-induced oedema in the rat per os; assay type: in vivo; details: 200 mg/kg, maximum effect 120 minutes after administration
Description: (§1) The anti-inflammatory activity of 3-amino-(−)-verbenone-5-sulphosalicylate was compared with that of (−)-verbenone in accordance with methods described in the literature (C. A. WINTER et al. Carrageenin induced edema in hind paw of the rat as an assay for antinflammatory drugs. Proc. Soc. Exp. Biol. Med. 111, 544, 1962. CURVOISIER et al. Action of chlorpromazine on the edema produced by dextran in rats. Arch. Inter. Pharmacodynamie, 102, 33-54, 1955. B. B. NEWBOULD) Chemotherapy of arthritis induced in rats by microbacterial adjuvant. Brit. J. Pharmacol. 21, 127-135, 1963. J. V. HURLEY et al. Reagin-Like antibodies in animals immune to helminth parasites. Nature (Lond.) 204, 91, 1964. ROTHKOPF et al. Arzneimittel Forschung 26, 225-235, 1976. C. A. WINTER et al. Antitussive compounds: testing methods and results. J. Pharmacol. Exp. Ther. 112, 99, 1954. G. OSTERLOH Arzneimittel Forschung, 16, 901, 1966); the results are given hereinafter in schematic form.
1. Carrageenin-induced Oedema in the Rat per OS
(§2) Parameter: percentage volumetric inhibition; maximum effect 120 minutes after administration: […]

[3] = system: Carrageenin-induced Oedema; experiment: Carrageenin-induced oedema in the rat by the intraperitoneal route; assay type: in vivo; details: 120 mg/kg, maximum effect 120 minutes after administration
Description: as §1
2. Carrageenin-induced Oedema in the Rat by the Intraperitoneal Route
as §2

[4] = system: Adjuvant Arthritis; experiment: Adjuvant arthritis in the rat by the intraperitoneal route; assay type: in vivo; details: 60 mg/kg, day 28
Description: as §1
3 Adjuvant Arthritis in the Rat by the Intraperitoneal Route
Parameter: percentage inhibition of the volumetric increase of the lower limbs; day “28”: […]

[5] = system: Turpentine-induced Pleurisy; experiment: Turpentine-induced pleurisy in the rat by the intraperitoneal route; assay type: in vivo; details: 60 mg/kg
Description: as §1
4. Turpentine-induced Pleurisy in the Rat by the Intraperitoneal Route
Parameter: percentage inhibition of the volume of exudate and of leukocyte migration: […]

[6] = system: Carrageenin-induced Pleurisy; experiment: Carrageenin-induced pleurisy in the rat per os; assay type: in vivo; details: 180 mg/kg
Description: as §1
5. Carrageenin-induced Pleurisy in the Rat per OS
(§3) Parameter: percentage inhibition of the volume of exudate: […]

[7] = system: Carrageenin-induced Pleurisy; experiment: Carrageenin-induced pleurisy in the rat by the intraperitoneal route; assay type: in vivo; details: 25 mg/kg
Description: as §1
6. Carrageenin-induced Pleurisy in the Rat by the Intraperitoneal Route
as §3

[8] = system: Acrolein-induced Aerosol (inflammation of the airways); experiment: Acrolein-induced aerosol in the guinea pig by the intraperitoneal route; assay type: in vivo; details: 30 mg/kg, residual inflammation after treatment (lower is better)
Description: as §1
7. Acrolein-induced Aerosol in the Guinea Pig by the Intraperitoneal Route
Parameter: inflammation of the upper, middle, lower airways: scores (double blind):
(§4) N. B. It should be emphasised in this connection that the results of Examples 1-6 have been given as a percentage of volumetric inhibition; Examples 7 and 8, however, indicate inflammation and adverse gastric action of a residual nature after treatment.

[9] = system: Adverse Gastric Activity; experiment: Adverse gastric activity in the rat per os (Osterloh); assay type: in vivo; details: for evaluation of adverse gastric action according to Osterloh: rat, per os, 360 mg/kg, residual adverse gastric action after treatment
Description: as §1
8. Adverse Gastric Activity in the Rat per OS
Parameter: evaluation of adverse gastric action according to Osterloh
as §4

[10] = Water solubility; assay type: physicochemical; details: in words

Compound	stability [1]	percentage volumetric inhibition [2] [%]	percentage volumetric inhibition [3] [%]	percentage inhibition of the volumetric increase of the lower limbs [4] [%]	percentage inhibition of the volume of exudate and of leukocyte migration [5] [%]	percentage inhibition of the volume of exudate [6] [%]	percentage inhibition of the volume of exudate [7] [%]	inflammation of the upper, middle, lower airways: scores (double blind) [8]	evaluation of adverse gastric action according to Osterloh [9]	adverse gastric activity compared with (−)-verbenone ([9]; test 8, in words)	solubility in water [10]
C=C1C=C(N2CCCC2)[C@H]2C[C@H]1C2(C)C [Compound 9c, (1S,5S)-6,6-Dimethyl-4-methylene-2-pyrrolidinobicyclo[3.1.1]hept-2-ene]	sensitive to oxygen, moisture and light	–	–	–	–	–	–	–	–	–	–
3-Aminoverbenone-5-sulphosalicylate [3-amino-(−)-verbenone-5-sulphosalicylate]	–	78	67	64	68	72	64	18	0.85	substantially lower adverse gastric activity	–
CC1=CC(=O)[C@H]2C[C@@H]1C2(C)C [(−)-verbenone, (1S,5S)-4,6,6-Trimethylbicyclo[3.1.1]hept-3-en-2-one]	instability over time	63	48	39	49	46	48	24	2	–	water-insolubility
